Measured values published in patent US11591297B2, “Compound having PD-L1 expression-suppressing action” (TOHOKU UNIVERSITY, priority 2019, dated 2023).
Read-outs that look alike come from different tables or passages of the source.

Experiments:
[1] = test system: human PD-L1 promoter; test: Inhibitory effect of luciferase expression under control of PD-L1 promoter (A549/PD-L1luc luciferase assay, corrected by total protein); type: cell-based; conditions: A549/PD-L1luc cells, 48±4 hours, RLU corrected by total protein amount, read-out: IC50 (50% inhibition value of luciferase expression)
Source text: A reporter vector, pPD-L1luc obtained by the insertion of a human PD-L1 promoter sequence (−2097 to 51) into the multiple cloning site of pGL-3 vector basic (Promega) expresses luciferase under the control of PD-L1 promoter when transfected into animal cells. The pPD-L1luc was transfected into a human non-small cell lung cancer-derived cell line A549 together with pPUR (Clontech) that expresses a puromycin resistance gene (puromycin-N-acetyl-transferase gene), and then cells expressing luciferase which could grow in a puromycin-supplemented medium were selected. The selected cells were named “A549/PD-L1luc cells” and used for luciferase assay as described below.
A test compound was added into a culture liquid containing A549/PD-L1luc cells to observe the influence of the test compound on the amount of luciferase expressed in the cells. Here, it can be considered that when the test compound has a cell cytotoxicity or cell growth inhibitory effect, the total expression level of luciferase is recued due to a reduction in the number of living cells that depends on the concentration of the test compound, and thus the inhibitory effect of luciferase expression under the control of PD-L1 promoter of the test compound cannot be properly evaluated.
A549/PD-L1luc cells were suspended in DMEM containing 10% fetal calf serum (FCS) and 1% penicillin/streptomycin (P/S) (hereinafter, referred to as “DMEM medium”) at 3×10^4 cells/mL to obtain a cell suspension, and the cell suspension was dispensed into each well of a 96-well plate in an amount of 100 μL. In order to perform the assay in triplicate, 3 wells were prepared for control group, and 3 wells were prepared for test compound-treated groups at each concentration. After the dispensation, the 96-well plate was incubated in a CO2 incubator (at 37° C. and 5% CO2) for 24±4 hours.
Each compound of Examples 1 to 6 and Comparative Example 1 was dissolved in dimethylsulfoxide (DMSO) to obtain 50 mmol/L of a compound solution, and the compound solution was stored at −80° C. The compound solution was diluted with DMSO in 2-fold dilution series (usually, in the range of 0.04 mmol/L to 10 mmol/L) to prepare test compound solutions whose concentration varied by two fold for luciferase assay.
Each solution of only DMSO (control) and the diluted test compound (sample) was dispensed into each well containing the cell suspension in an amount of 0.5 μL (200-fold dilution). The solution in each well was mixed with a vortex mixer, and then the 96-well plate was incubated in a CO2 incubator (at 37° C. and 5% CO2) for 48±4 hours. Luciferase Assay Substrate (hereinafter, referred to as “LAS”) supplied in Luciferase Assay Systems (Promega: Cat #E1500) was dissolved in Luciferase Assay Buffer (LAB) to prepare a luciferase reagent. 5× Cell Culture Lysis Reagent (hereinafter, referred to as “CCLR”) was diluted by 5 times with water to prepare 1×CCLR.
After the incubation for 48±4 hours, the medium in each well was completely removed, and 1×CCLR was dispensed into each well in an amount of 50 μL. The plate was allowed to stand at room temperature for 30 minutes, and then 1×CCLR in each well was used as an assay sample for luciferase and total protein amount. The luciferase reagent (100 μL) was placed in a tube for chemiluminescence measurement assay, and the assay sample (20 μL) was added into the tube and mixed with the luciferase reagent to measure chemiluminescence (Relative Luminescence Intensity: RLU) using GloMax 20/20 (Promega).
The above-mentioned assay sample (10 μL) was diluted by 10 times with water (90 μL). Each calibration curve sample was prepared by diluting the BSA solution with water as described in Table 1.
BCA reagent A and BCA reagent B (50:1) supplied in a kit for protein assay were mixed to prepare Working Reagent. Each of the calibration curve samples (Vials I to VI) and the 10-fold diluted assay samples was dispensed into each well of a 96-well plate in an amount of 25 μL, respectively. […]

[2] = test system: PD-L1; test: Inhibitory effect of PD-L1 expression by cell staining with anti-PD-L1 antibody in IFN-γ-treated THP-1 cells (flow cytometry); type: cell-based; conditions: Homo sapiens, IFN-γ 25 ng/mL, 24±2 hours, subMFI anti-CD274-PC7, read-out: IC50 (50% PD-L1 expression inhibition concentration)
Description: The inhibitory effects of each compound of Examples 1 to 6 on the PD-L1 expression were evaluated according to the following procedures.
(1) Acute monocytic leukemia cell-derived THP-1 cells were suspended in RPMI medium containing 10% FCS and 1% P/S (hereinafter, referred to as “RPMI medium”) at 5×10^5 cells/mL to obtain a cell suspension, and the cell suspension was dispensed into each well of a 6 well-plate in an amount of 3 mL. In order to activate the THP-1 cells and express PD-L1 in the cells, IFN-γ (PEPROTECH, Cat. No. 300-02-100UG, >2e+7 U/mg) was added into each well at a concentration of 25 ng/mL (>500 U/mL). 50 mmol/L of the test compound solution was diluted with the medium (usually, in the range of 0.025 mmol/L to 1 mmol/L), and the diluted solution was added into each well in an amount of 60 μL. The plate was incubated in a CO2 incubator (at 37° C. and 5% CO2) for 24±2 hours. In the control group, only DMSO was added in place of the test compound. (2) A part of the prepared cell culture liquid was collected and the number of cells therein was counted using a cell counter (BIORAD TC-20). The cell culture liquid was centrifuged at 300×g for 5 minutes and the supernatant of the cell culture liquid was removed. The cells were suspended in calcium and magnesium free phosphate buffered saline (PBS−) containing 1% bovine serum albumin (BSA) at a cell concentration of 1 to 2×10^7 cells/mL to prepare a cell suspension. (3) Each cell suspension prepared in the above step (2) were added into a 5 mL tube in an amount of 25 μL. 2 μL of 2% normal mouse serum/PBS− was added into tubes, and the tubes were gently pipetted. The tubes were then allowed to stand at room temperature for 15 minutes. (4) Anti-CD274-PC7 antibody (BECKMAN COULTER, Cat. No. A78884) or mouse IgG1-PC7 antibody (BECKMAN COULTER, 737662) as control was added in each tube in an amount of 10 μL, and the tubes were gently stirred. The tubes were then allowed to stand in the dark on an ice bath for 30 minutes. (5) Foxp3/Transcription Factor Fix/Perm Concentrate (4×) (Cat. No. TNB-1020-L050) (A solution) supplied in FOXP3/Transcription Factor Staining kit (TONBO biosciences) was diluted in Foxp3/Transcription Factor Fix/Perm Diluent (1×) (Cat. No. TNB-1022-L160) (A dilution solution) to prepare a 1×A solution. (6) The 1×A solution was added into each tube in an amount of 1 mL, and the tubes were gently pipetted and stirred. The tubes were then allowed to stand in the dark at room temperature for 30 minutes and centrifuged at 300×g for 5 minutes, and then the supernatants therein were removed. (7) 2 mL of 1% BSA/PBS− was added into each tube and the tubes were gently stirred and centrifuged at 300×g for 5 minutes, and then the supernatants therein were removed. (8) The cells therein were suspended in 0.5 mL of 1% BSA/PBS- and measured with a flow cytometer (Sony: Cell Sorter SH800) within 2 hours. The results were analyzed with a software, FlowJo (Tree Star Inc.). The mean peak fluorescence intensity (MFI) of PD-L1 and mean peak fluorescence intensity of IgG1 were calculated from histograms of the measured fluorescence intensity and number of cells, and the mean fluorescence intensity of IgG1 was subtracted from that of PD-L1 to calculate the subMFI. The experiments were performed in n=2.
The subMFI values of the control cells calculated by the FlowJo analysis and the cells cultured with the addition of the test compounds at each concentration (test cells) were input into an Excel file, and the percentages of the subMFI values of the test cells at each concentration to the average subMFI value of control cells were calculated. The regression line was determined from the percentages of the subMFI values of the test cells at each concentration by the method of least squares to calculate the 50% PD-L1 expression inhibition concentration (IC50 value) of each compound.

Compound	IC50 ([1]; Homo sapiens)	IC50 [2]	IC50 [1]
O=C(Nc1ccc(Oc2ccc(C(F)(F)F)cc2)cc1)C1CCCN(C(=O)c2ccc(O)cc2)C1 (centres unmarked) [Example 1, 1-(4-Hydroxybenzoyl)-N-(4-(4-(trifluoromethyl)phenoxy)phenyl)piperidine-3-carboxamide]	1.3 µM	1.9 µM	
O=C(Nc1ccc(Oc2ccc(S(F)(F)(F)(F)F)cc2)cc1)C1CCCN(C(=O)c2ccc(O)cc2)C1 (centres unmarked) [Example 4]	1.2 µM	1.2 µM	
N-(3-(4-Chlorophenoxy)phenyl)-1-(4-hydroxyphenylcarbonyl) piperidine-3-carboxamide [Comparative Example 1, reference compound]			14.1 µM
